Experimental data from patent US20070197591A1, “USE OF PALIPERIDONE FOR THE TREATMENT OF A MENTAL DISORDER IN A PSYCHIATRIC PATIENT WITH REDUCED HEPATIC FUNCTION” (priority 2005, published 2007).
Read-outs that look alike come from different tables or passages of the source.

Assay: Single-dose pharmacokinetics of IR paliperidone in subjects with moderate hepatic impairment vs normal hepatic function
Assay type: in vivo, human
Conditions: for CL renal / AUC(0-inf) / half-life / Tmax / Cmax: both sexes, human, 1 mg; for CL renal: plasma and urine; for AUC(0-inf) / half-life / Tmax / Cmax: plasma; for half-life: read-out: t1/2 (terminal half-life) (converted); for Tmax: read-out: tmax, median (range); for Ae, % dose: urine
Source text: Objectives: The primary objective of this study was to investigate the single-dose pharmacokinetics of immediate-release (IR) paliperidone, after oral administration, in subjects having moderate hepatic impairment (“hepatically-impaired subjects”) compared with subjects having normal hepatic function (“healthy subjects”). The secondary objective was to document the plasma protein binding and disposition of the enantiomers of paliperidone. In addition, the tolerability and safety profile of IR paliperidone was compared between hepatically impaired subjects and healthy subjects. Methodology: This was a single-dose, parallel-group, open-label, single-center, Phase I study of IR paliperidone in subjects having either normal or moderately impaired hepatic function. The groups, consisting of 10 subjects each, were demographically matched with respect to age, weight, sex, and ethnicity. The study consisted of a screening period of up to 3 weeks and an open-label, single-dose treatment period (Days 1 through 5). On Day 1, a single dose of 1 mg IR paliperidone oral solution was administered after a fast of at least 10 hours; subjects continued to fast for 4 hours following study drug administration. The 96-hour follow-up consisted of serial sample collection of blood and urine for pharmacokinetic analysis and safety and tolerability assessments. Subjects remained confined to the study site through the 72-hour pharmacokinetics sampling, and consumed standard institutional meals while in the study site. Subjects were released after the 72-hour sampling, then returned to the study site on Day 5 before the 96-hour pharmacokinetics sampling: end-of-study procedures were performed immediately hereafter. A blood sample for DNA isolation was collected to allow for genetic analysis as necessary. Diagnosis and Main Criteria for Inclusion: The study was conducted in men and women, aged 18 through 75 years, inclusive. One group of subjects had moderate hepatic impairment, with stable hepatic disease, a total Child-Pugh score of between 7 and 9, inclusive, and blood pressure that was controlled and stable on antihypertensive agents; the other group had normal hepatic function. Test Product, Dose and Mode of Administration, Batch No: 1 mg IR paliperidone (R076477) oral solution; batch 04C29/[…]. Criteria for Evaluation: Pharmacokinetics: Plasma and urine concentrations of the paliperidone enantiomers (+) R078543 and (-) R078544 were determined using an LC-MS/MS method. Concentrations of paliperidone were calculated as the sum of the enantiomer concentrations. In addition, serum and urine concentrations of creatinine were determined for the calculation of CLCR. The protein binding and unbound fraction was determined for the 2 paliperidone enantiomers. The unbound fraction for paliperidone was calculated. Based on the actual pharmacokinetic blood sampling times and actual urine collection periods, the following plasma and urine pharmacokinetic parameters were determined for paliperidone and its enantiomers: Cmax, tmax, tlast, AUClast, λZ, t1/2, AUC∞, % AUC∞,ex, CL/F, AUC∞+/- ratio, Ct+/- ratio per time point, unbound AUC∞, unbound CL/F or unbound CL (if relevant), Ae (per collection interval and overall), Ae,% dose, Excr. Rate, […], and CLNR. Pharmacokinetics: Descriptive statistics were evaluated for the plasma concentrations at each sampling time, and for all pharmacokinetic parameters of paliperidone and its enantiomers for each hepatic function group Graphical exploration of the paliperidone and enantiomer plasma concentrations and urine data, and the derived pharmacokinetic parameters, was performed. In addition, the enantiomer disposition was compared between the groups. Log-transformed PK parameters were fit to a general linear model with hepatic function grip as fixed effect.

[1] = Hepatically-Impaired Subjects, Total
[2] = Hepatically-Impaired Subjects, Unbound
[3] = oral, Healthy Subjects, Unbound
[4] = oral, Hepatically-Impaired Subjects, Total
[5] = oral, Hepatically-Impaired Subjects, Unbound

Compound: Cc1nc2n(c(=O)c1CCN1CCC(c3noc4cc(F)ccc34)CC1)CCCC2O (centres unmarked) [Paliperidone, paliperidone]
- CL/F (Healthy Subjects, Total): 106 ± 34.9 mL/min
- CLNR (Healthy Subjects, Total): 54.4 ± 23.7 mL/min
- Vdz (Healthy Subjects, Total): 211 ± 59.6 L
- CL/F (Healthy Subjects, Unbound): 370 ± 67.1 mL/min
- CLNR (Healthy Subjects, Unbound): 188 ± 56.8 mL/min
- Vdz (Healthy Subjects, Unbound): 748 ± 144 L
- CL/F [1]: 143 ± 43.4 mL/min
- CLNR [1]: 75.1 ± 16.2 mL/min
- Vdz [1]: 311 ± 65.2 L
- CL/F [2]: 386 ± 99.3 mL/min
- CLNR [2]: 205 ± 30.7 mL/min
- Vdz [2]: 857 ± 146 L
- clearance and volume of distribution between the groups (based on unbound concentrations): comparable
- Active renal clearance as share of the renal clearance (both groups): approximately 45%
- median time to reach maximum plasma concentration (both groups): around 1 hour
- CL renal (oral, Healthy Subjects, Total, read-out: CLR): 51.2 ± 13.4 mL/min
- CL renal (oral, Hepatically-Impaired Subjects, Total, read-out: CLR): 67.4 ± 34 mL/min
- CL renal (oral, healthy subjects (second value of '67.4 vs. 51.2'), read-out: Renal clearance): 51.2 mL/min
- CL renal (oral, hepatically-impaired subjects (first value of '67.4 vs. 51.2'), read-out: Renal clearance): 67.4 mL/min
- AUC(0-inf) (oral, Healthy Subjects, Total): 176 ± 64.4 ng·h/mL
- half-life (oral, Healthy Subjects, Total): 23.6 h
- Tmax (oral, Healthy Subjects, Total): 1 h
- AUC(0-inf) [3]: 45.8 ± 8.72 ng·h/mL
- Cmax [3]: 1.81 ± 0.292 ng/mL
- Tmax [3]: 1.25 h
- AUC(0-inf) [4]: 128 ± 42.5 ng·h/mL
- Cmax [4]: 4.57 ± 1.05 ng/mL
- half-life [4]: 26.5 h
- Tmax [4]: 1.25 h
- AUC(0-inf) [5]: 45.7 ± 12.6 ng·h/mL
- Cmax [5]: 1.59 ± 0.318 ng/mL
- Tmax [5]: 1.25 h
- Cmax (po, Healthy Subjects, Total, 1 mg IR oral solution): 7.14 ± 2.28 ng/mL
- dose excreted unchanged into urine (did not differ between the groups): Approximately 50%
- CL/F higher in hepatically-impaired compared with healthy subjects (total): about 35%
- volume of distribution higher in hepatically-impaired compared with healthy subjects (total Paliperidone): 47%
- exposure (Cmax, AUC∞) between hepatic function groups after correction for unbound fraction (unbound): comparable
- AUC∞ lower in hepatically-impaired compared with healthy subjects (unbound fraction): approximately 5%
- Cmax lower in hepatically-impaired compared with healthy subjects (unbound fraction): approximately 12%
- Ae, % dose (Healthy Subjects): 50.1 ± 7.94 % dose
- Ae, % dose (Hepatically-Impaired Subjects): 44.7 ± 10.62 % dose
